Read-outs that look alike come from different tables or passages of the source.
Columns and labels:
ROCK II = biological target: T1, ROCK II (Homo sapiens, UniProt O75116); assay: Enzyme-based ROCK II inhibitory activity assay (ELISA, Rho kinase assay kit CY-1160); assay type: biochemical; conditions: for inhibition at 10 µM: read-out: Inhibition of ROCKII (%); for IC50: read-out: IC50 against ROCK II
T1 construct: purchased Cycle, Nagoya, Japan CY-1160
Protocol: Enzyme-based ROCK II inhibitory activity studies
The enzyme-based ROCK II inhibitory activity assay was performed using the Rho kinase assay kit (CY-1160, Cycle, Nagoya, Japan). All operation was guided by the manufacturer’s instructions. Briefly, the compounds at 10 µM were pre-incubated in a system wherein ROCK II (0.02 ng/µL) phosphorylates the myosin-binding subunit (MBS) of kinase substrate pre-absorbed onto the microplate in the presence of Mg^2+ and ATP. Then, the system was washed after incubation at 30 ^◦C for 30 min. 100 µL of antibody was added to the wells and then incubated for 30 min at room temperature. 100 µL of substrate reagent and 100 µL stop solution were successively added to each well. The plates were read on the Viewlux in HTRF mode within 30 min.
All compounds were initially evaluated for their percentage inhibition against ROCK II with a ROCK II assay kit (CY-1160, Cycle, Japan).

ROCK = tested on: ROCK; set-up: method as in PMID 18638453; conditions: compared with its in-vitro enzyme-based ROCK II activity; cited from earlier work
[1] = undesired pharmacokinetic properties, not suitable for non-topical administration; cited from earlier work
[2] = full concentration-response plots

T1 sequence (O75116 whole entry): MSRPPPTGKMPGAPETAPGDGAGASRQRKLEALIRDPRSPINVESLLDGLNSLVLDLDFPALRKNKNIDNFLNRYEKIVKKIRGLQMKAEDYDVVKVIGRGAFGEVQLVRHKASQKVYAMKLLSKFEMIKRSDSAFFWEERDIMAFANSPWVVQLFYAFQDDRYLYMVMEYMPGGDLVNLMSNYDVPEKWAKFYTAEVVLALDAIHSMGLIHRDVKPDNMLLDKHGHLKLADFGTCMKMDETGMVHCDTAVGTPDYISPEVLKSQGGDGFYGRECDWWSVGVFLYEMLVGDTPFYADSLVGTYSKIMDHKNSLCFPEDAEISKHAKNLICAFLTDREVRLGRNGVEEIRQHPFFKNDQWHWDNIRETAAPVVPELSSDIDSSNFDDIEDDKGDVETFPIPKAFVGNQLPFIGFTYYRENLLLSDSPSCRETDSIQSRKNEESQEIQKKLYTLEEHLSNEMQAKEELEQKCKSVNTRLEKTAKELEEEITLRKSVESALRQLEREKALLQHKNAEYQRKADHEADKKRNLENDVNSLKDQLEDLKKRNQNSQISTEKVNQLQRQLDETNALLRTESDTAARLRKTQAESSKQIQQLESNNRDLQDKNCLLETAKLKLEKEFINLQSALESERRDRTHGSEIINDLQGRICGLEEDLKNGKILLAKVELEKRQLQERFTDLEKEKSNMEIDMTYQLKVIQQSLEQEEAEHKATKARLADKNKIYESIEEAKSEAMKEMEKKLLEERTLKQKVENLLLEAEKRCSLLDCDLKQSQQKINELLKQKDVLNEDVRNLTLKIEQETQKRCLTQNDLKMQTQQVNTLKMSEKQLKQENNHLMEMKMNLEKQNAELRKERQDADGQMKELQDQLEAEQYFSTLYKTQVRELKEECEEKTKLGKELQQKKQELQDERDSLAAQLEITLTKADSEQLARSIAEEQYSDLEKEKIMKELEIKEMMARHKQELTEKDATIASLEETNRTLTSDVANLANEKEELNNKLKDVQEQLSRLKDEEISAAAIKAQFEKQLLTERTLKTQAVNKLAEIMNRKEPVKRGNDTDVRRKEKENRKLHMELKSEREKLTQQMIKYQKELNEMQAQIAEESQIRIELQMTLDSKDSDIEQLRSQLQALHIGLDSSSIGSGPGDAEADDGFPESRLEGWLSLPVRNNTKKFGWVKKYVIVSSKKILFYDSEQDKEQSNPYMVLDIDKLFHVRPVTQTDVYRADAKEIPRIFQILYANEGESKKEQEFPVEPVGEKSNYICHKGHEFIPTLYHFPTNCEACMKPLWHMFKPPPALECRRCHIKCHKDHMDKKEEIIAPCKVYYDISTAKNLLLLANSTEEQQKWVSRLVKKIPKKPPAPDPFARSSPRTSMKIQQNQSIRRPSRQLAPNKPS

Compound | melting point | inhibition at 10 µM (ROCK II; compound concentration 10 µM) | IC50 (ROCK II; [2]) | other results
O=C(Nc1nc(-c2cccnc2)c(CN2CCOCC2)s1)C1COc2ccccc2O1 (stereo not shown) [4l, N-(5-(morpholinomethyl)-4-(pyridin-3-yl)thiazol-2-yl)-2,3-dihydrobenzo[b] [1,4] dioxine-2-carboxamide] | 177 to 179 °C | 73.8% | 1020 ± 70 nM | 
O=C(Nc1nc(-c2ccncc2)c(CN2CCOCC2)s1)c1ccc(Cl)c(Cl)c1 [4p, 3,4-Dichloro-N-(5-(morpholinomethyl)-4-(pyridin-4-yl)thiazol-2-yl) benzamide] | 163 to 164 °C | 43.5% |  | 
O=C(Nc1nc(-c2cccnc2)c(CN2CCOCC2)s1)c1ccc(Cl)c(Cl)c1 [4d, 3,4-Dichloro-N-(5-(morpholinomethyl)-4-(pyridin-3-yl)thiazol-2-yl) benzamide] | 208 to 210 °C | 42.9% |  | 
Cc1ccc(C(=O)Nc2nc(-c3cccnc3)c(CN3CCOCC3)s2)cc1 [4a, 4-Methyl-N-(5-(morpholinomethyl)-4-(pyridin-3-yl)thiazol-2-yl) benzamide] | 198 to 199 °C | 46.3% |  | 
O=C(Nc1nc(-c2ccncc2)c(CN2CCCC2)s1)c1ccncc1 [4r, N-(4-(Pyridin-4-yl)-5-(pyrrolidin-1-ylmethyl)thiazol-2-yl) isonicotinamide] | 192 to 195 °C | 47.6% |  | 
O=C(Nc1nc(-c2ccncc2)cs1)C1COc2ccccc2O1 (stereo not shown) [II, reference compound] |  | 91.3% | 10 ± 3 nM | potency in a cell-based assay (ROCK): much less potent
Cc1ccc(C(=O)Nc2nc(-c3cccnc3)c(CN3CCN(C)CC3)s2)cc1 [4b, 4-Methyl-N-(5-((4-methylpiperazin-1-yl)methyl)-4-(pyridin-3-yl)thiazol-2-yl) benz-amide] | 180 to 182 °C | 32.7% |  | 
O=C(Nc1nc(-c2ccncc2)c(CN2CCOCC2)s1)c1cccnc1 [4t, N-(5-(Morpholinomethyl)-4-(pyridine-4-yl)thiazol-2-yl) nicotinamide] | 178 to 180 °C | 52.2% | 9120 ± 2460 nM | 
CN1CCN(Cc2sc(NC(=O)c3ccccc3)nc2-c2cccnc2)CC1 [4g, N-(5-((4-Methylpiperazin-1-yl)methyl)-4-(pyridin-3-yl)thiazol-2-yl) benzamide] | 198 to 199 °C | 29.6% |  | 
CC(C)N(C)Cc1sc(NC(=O)c2ccc(Cl)c(Cl)c2)nc1-c1cccnc1 [4f, 3,4-Dichloro-N-(5-((i-propyl(methyl)amino)methyl)-4-(pyridin-3-yl)thiazol-2-yl) benzamide] | 171 to 172 °C | 34.6% |  | 
CN1CCN(Cc2sc(NC(=O)c3ccc(Cl)c(Cl)c3)nc2-c2cccnc2)CC1 [4e, 3,4-Dichloro-N-(5-((4-methylpiperazin-1-yl)methyl)-4-(pyridin-3-yl)thiazol-2-yl) benzamide] | 179 to 181 °C | 27.9% |  | 
CN(C)CCOc1cc(-c2cn[nH]c2)ccc1NC(=O)[C@H]1Cc2ccccc2CN1 [I] |  |  |  | bioavailability [1]: low bioavailability; clearance [1]: high clearance
Cc1ccc(C(=O)Nc2nc(-c3ccncc3)c(CN3CCN(C)CC3)s2)cc1 [4n, 4-Methyl-N-(5-((4-methylpiperazin-1-yl)methyl)-4-(pyridin-4-yl)thiazol-2-yl) benzamide] | 148 to 150 °C | 42.4% |  | 
O=C(Nc1nc(-c2cccnc2)c(CN2CCCC2)s1)C1COc2ccccc2O1 (stereo not shown) [4k, N-(4-(pyridin-3-yl)-5-(pyrrolidin-1-ylmethyl)thiazol-2-yl)-2,3-dihydrobenzo[b] [1,4] dioxine-2-carboxamide] | 181 to 182 °C | 61.3% | 1560 ± 230 nM | 
CN(C)Cc1sc(NC(=O)C2COc3ccccc3O2)nc1-c1cccnc1 (stereo not shown) [4j, N-(5-((dimethylamino)methyl)-4-(pyridin-3-yl)thiazol-2-yl)-2,3-dihydrobenzo[b] [1,4] dioxine-2-carboxamide] | 192 to 196 °C | 68.1% | 960 ± 120 nM | 
O=C(Nc1nc(-c2ccncc2)c(CN2CCCCC2)s1)c1cccnc1 [4u, N-(5-(Piperidin-1-ylmethyl)-4-(pyridin-4-yl)thiazol-2-yl) nicotinamide] | 169 to 171 °C | 38.1% |  | 
CN1CCN(Cc2sc(NC(=O)c3ccc(Cl)c(Cl)c3)nc2-c2ccncc2)CC1 [4o, 3,4-Dichloro-N-(5-((4-methylpiperazin-1-yl)methyl)-4-(pyridin-4-yl)thiazol-2-yl) benzamide] | 201 to 203 °C | 44.8% |  | 
CN(C)Cc1sc(NC(=O)c2ccncc2)nc1-c1cccnc1 [4h, N-(5-((dimethylamino)methyl)-4-(pyridin-3-yl)thiazol-2-yl) isonicotinamid] | 201 to 202 °C | 35.3% |  | 
O=C(Nc1nc(-c2cccnc2)c(CN2CCOCC2)s1)c1ccncc1 [4i, N-(5-(morpholinomethyl)-4-(pyridin-3-yl)thiazol-2-yl) isonicotinamide] | 185 to 187 °C | 51.1% | 9830 ± 1450 nM | 
Cc1ccc(C(=O)Nc2nc(-c3ccncc3)c(CN3CCOCC3)s2)cc1 [4m, 4-Methyl-N-(5-(morpholinomethyl)-4-(pyridin-4-yl)thiazol-2-yl) benzamide] | 148 to 149 °C | 48.6% |  | 
N-(5-((4-Methylpiperazin-1-yl) methyl)-4- (pyridin-4-yl) thiazol-2-yl) isonicotinamide [4q] |  |  |  | Inhibition of ROCKII (%) (ROCK II; compound concentration 10 µM): 48.2%
O=C(Nc1nc(-c2ccncc2)c(CN2CCOCC2)s1)c1ccncc1 [4s, N-(5-(morpholinomethyl)-4-(pyridin-4-yl)thiazol-2-yl) isonicotinamide] | 175 to 178 °C | 58.1% | 8560 nM | 
Cc1ccc(C(=O)Nc2nc(-c3cccnc3)c(CN(C)C(C)C)s2)cc1 [4c, N-(5-((i-Propyl(methyl)amino)methyl)-4-(pyridin-3-yl)thiazol-2-yl)-4-methylbenzamide] |  | 32.8% |  | 
O=C(Nc1nc(-c2ccncc2)c(CN2CCOCC2)s1)C1COc2ccccc2O1 (stereo not shown) [4v, N-(5-(morpholinomethyl)-4-(pyridin-4-yl)thiazol-2-yl)-2,3-dihydrobenzo[b] [1,4] dioxine-2-carboxamide] | 178 to 180 °C | 84.4% | 20 nM | IC50 (ROCK II; value stated in text in nM): 20 nM

— paper PMC8653655, “The Design, Synthesis and Evaluation of Rho-kinase Inhibitory Activity of 4-aryl-thiazole-2-amines” (Iranian Journal of Pharmaceutical Research : IJPR, 2021)
